Reference: patent US20240307426A1, “USE OF SGLT-2 INHIBITORS FOR THE PREVENTION AND/OR TREATMENT OF RENAL DISEASES IN NON-HUMAN MAMMALS” (BOEHRINGER INGELHEIM VETMEDICA GMBH, priority 2021, published 2024)

Test system: cats with chronic kidney disease (CKD)
Assay: Exploratory clinical field trial in cats with CKD (Example 3)
Type: in vivo, cat
Parameters: key to IRIS Stage (based on serum creatinine level) / IRIS Stage (based on creatinine level) / IRIS Stage (based on the creatinine level): IRIS CKD stage assigned from serum creatinine (IRIS 2019)
Details: for Phosphorus: ref 0.8-2.2; for Serum creatinine: ref 0.9-2.3; for Potassium: ref 3.3-5.8; for UPC: ref <0.33
Method: The clinical trial was conducted at three animal clinics. Overall, 9 cats with chronic kidney disease (CKD) were included in the study and treated once daily orally with 1 mg/kg bodyweight velagliflozin for up to 150 days (depending on the time of enrollment).
Diagnosis of CKD was based on two measurements of serum creatinine concentration at least 2 weeks apart from each other (historical value and screening, and value at screening in fasted cats), as recommended by the International Renal Interest Society (IRIS 2019). In order to qualify for enrollment, serum creatinine levels needed to be ≥2.2 mg/dL, but <5.0 mg/dL.
Disease staging throughout the study was performed based on serum creatinine levels in accordance with the IRIS CKD staging (IRIS 2019).
All other cats were treated for >90 days had at least data for two time points under treatment available and were therefore evaluated. Progression of the disease, as well as IRIS staging in this study was based on the most reliable biomarker: serum creatinine.

[1] = case 200-001, 1 mg/kg po once daily
[2] = case 200-001, 1 mg/kg po once daily, whole study
[3] = case 200-001, Visit 1 (Day 30), 1 mg/kg po once daily
[4] = case 200-001, Visit 2 (Day 90), 1 mg/kg po once daily
[5] = case 200-001, Visit 3 (Day 111), 1 mg/kg po once daily
[6] = case 200-001, screening visit (before treatment)
[7] = case 200-003 (IRIS stage 3), removed early on day 30
[8] = case 200-004, 1 mg/kg po once daily, whole study
[9] = case 200-004, Visit 1 (Day 30), 1 mg/kg po once daily
[10] = case 200-004, Visit 2 (Day 90), 1 mg/kg po once daily
[11] = case 200-004, Visit 3 (Day 143), 1 mg/kg po once daily
[12] = case 200-004, screening visit (before treatment)
[13] = case 200-005, 1 mg/kg po once daily
[14] = case 200-005, 1 mg/kg po once daily, whole study
[15] = case 200-005, Visit 1 (Day 30), 1 mg/kg po once daily
[16] = case 200-005, Visit 2 (Day 90), 1 mg/kg po once daily
[17] = case 200-005, Visit 3 (Day 128), 1 mg/kg po once daily
[18] = case 200-005, screening visit (before treatment)
[19] = case 200-006, 1 mg/kg po once daily
[20] = case 200-006, 1 mg/kg po once daily, whole study
[21] = case 200-006, Visit 1 (Day 30), 1 mg/kg po once daily
[22] = case 200-006, Visit 2 (Day 90), 1 mg/kg po once daily

N#Cc1ccc([C@@H]2O[C@H](CO)[C@@H](O)[C@H](O)[C@H]2O)cc1Cc1ccc(C2CC2)cc1 [velagliflozin, Velagliflozin]
decrease in serum creatinine within the observation period (3 of the seven evaluated cats, 1 mg/kg po once daily): ≥ 10%
renal parameters and clinical signs (IRIS stage 2 and 3 CKD cats, 1 mg/kg orally once daily): stabilized or even improved
expected glucosuric effect (all cats except cat 200-004 (no data recorded)): confirmed
Hematocrit (all cats under oral treatment with 1 mg/kg bodyweight): remained within the reference range
Systolic blood pressure (all cats, during the course of the study): < 160 mmHg
serum phosphate levels (all evaluated cases, except one measurement for case 200-001 on day 90): remained within the laboratories reference range throughout the study
Proteinuria (UPC) (all patients, 1 mg/kg po once daily): ≤ 0.33
Serum potassium levels (all treated cats, 1 mg/kg po once daily): stayed within the reference range
adverse events [1]: Two adverse events were reported for this patient: pectin responsive diarrhea for one day and pancreatitis
expected glucosuric effect [1]: confirmed
Quality of life according to the owner (course) [2]: remained very good
Serum potassium levels (course) [2]: decreased within the reference range
UPC (course) [2]: improved from 0.4 to 0.2
appetite and drinking behavior (course) [2]: remained normal
condition (clinical signs and biochemical parameters) [2]: stabilization of the condition
course of BUN [2]: remained stable
course of serum creatinine [2]: remained stable with one single measurement on Day 90 being increased
total urine protein [2]: reduced
BUN [3]: 38 mg/dL
IRIS Stage (based on the creatinine level) [3]: 2
Owner assessment - quality of life [3]: very good
Owner assessment of the appetite [3]: normal
Owner assessment of the drinking behavior [3]: normal
Systolic blood pressure [3]: 126.7 mmHg
Phosphorus [3]: 1.3 mmol/L
Serum creatinine [3]: 2.6 mg/dL
Potassium [3]: 4.6 mmol/L
Hematocrit (case 200-001, Visit 1 (Day 30), 1 mg/kg po once daily, ref 28.2-52.7): 38.5%
BUN [4]: 47 mg/dL
IRIS Stage (based on the creatinine level) [4]: 3
Owner assessment - quality of life [4]: very good
Owner assessment of the appetite [4]: normal
Owner assessment of the drinking behavior [4]: normal
Systolic blood pressure [4]: 122.7 mmHg
Phosphorus [4]: 2.4 mmol/L
Serum creatinine [4]: 3.2 mg/dL
Potassium [4]: 4.3 mmol/L
Hematocrit (case 200-001, Visit 2 (Day 90), 1 mg/kg po once daily, ref 28.2-52.7): 34.6%
UPC [4]: 0.2
BUN [5]: 41 mg/dL
IRIS Stage (based on the creatinine level) [5]: 2
Owner assessment - quality of life [5]: very good
Owner assessment of the appetite [5]: normal
Owner assessment of the drinking behavior [5]: normal
Systolic blood pressure [5]: 131.3 mmHg
Phosphorus [5]: 1.6 mmol/L
Serum creatinine [5]: 2.6 mg/dL
Potassium [5]: 4.3 mmol/L
Hematocrit (case 200-001, Visit 3 (Day 111), 1 mg/kg po once daily, ref 28.2-52.7): 32.6%
BUN [6]: 39 mg/dL
IRIS Stage (based on the creatinine level) [6]: 2
Owner assessment - quality of life [6]: very good
Owner assessment of the appetite [6]: normal
Owner assessment of the drinking behavior [6]: normal
Systolic blood pressure [6]: 152.0 mmHg
Phosphorus [6]: 1.4 mmol/L
Serum creatinine [6]: 2.6 mg/dL
Potassium [6]: 5.2 mmol/L
Hematocrit (case 200-001, screening visit (before treatment), ref 28.2-52.7): 37.4%
UPC [6]: 0.4
appetite and drinking behavior [7]: improving to normal
laboratory parameters [7]: worsening of a single measurement of laboratory parameters
quality of life [7]: good quality of life
adverse events (case 200-004, 1 mg/kg po once daily): No adverse event was reported
Quality of life according to the owner (course) [8]: remained very good
appetite and drinking behavior (course) [8]: remained normal
change of IRIS stage of the disease [8]: from 3 to 2
condition (biochemical parameters) [8]: improvement of the condition
course of serum creatinine [8]: decreased by a clinically relevant amount
BUN [9]: 42 mg/dL
IRIS Stage (based on serum creatinine level) [9]: 2
Owner assessment - quality of life [9]: very good
Owner assessment of the appetite [9]: normal
Owner assessment of the drinking behavior [9]: normal
Systolic blood pressure [9]: 148.0 mmHg
Phosphorus [9]: 1.3 mmol/L
Serum creatinine [9]: 2.7 mg/dL
Potassium [9]: 4.5 mmol/L
Hematocrit (case 200-004, Visit 1 (Day 30), 1 mg/kg po once daily, ref 28.2-52.7): 37.0%
BUN [10]: 36 mg/dL
IRIS Stage (based on serum creatinine level) [10]: 2
Owner assessment - quality of life [10]: very good
Owner assessment of the appetite [10]: normal
Owner assessment of the drinking behavior [10]: normal
Systolic blood pressure [10]: 129.3 mmHg
Phosphorus [10]: 1.3 mmol/L
Serum creatinine [10]: 2.5 mg/dL
Potassium [10]: 4.9 mmol/L
Hematocrit (case 200-004, Visit 2 (Day 90), 1 mg/kg po once daily, ref 28.2-52.7): 32.9%
BUN [11]: 38 mg/dL
IRIS Stage (based on serum creatinine level) [11]: 2
Owner assessment - quality of life [11]: very good
Owner assessment of the appetite [11]: normal
Owner assessment of the drinking behavior [11]: normal
Systolic blood pressure [11]: 148.7 mmHg
Phosphorus [11]: 1.2 mmol/L
Serum creatinine [11]: 2.6 mg/dL
Potassium [11]: 4.9 mmol/L
Hematocrit (case 200-004, Visit 3 (Day 143), 1 mg/kg po once daily, ref 28.2-52.7): 34.8%
BUN [12]: 46 mg/dL
IRIS Stage (based on serum creatinine level) [12]: 3
Owner assessment - quality of life [12]: very good
Owner assessment of the appetite [12]: normal
Owner assessment of the drinking behavior [12]: normal
Systolic blood pressure [12]: 130.7 mmHg
Phosphorus [12]: 1.2 mmol/L
Serum creatinine [12]: 2.9 mg/dL
Potassium [12]: 4.9 mmol/L
Hematocrit (case 200-004, screening visit (before treatment), ref 28.2-52.7): 33.4%
UPC [12]: 0.1
Quality of life according to the owner [13]: good
adverse events [13]: No adverse event was reported
expected glucosuric effect [13]: confirmed
Serum potassium levels (course) [14]: remained stable
UPC ratio (remained at) [14]: 0.1
appetite and drinking behavior (course) [14]: remained normal
condition (clinical signs and biochemical parameters) [14]: stabilization of the condition
course of BUN [14]: remained stable
course of serum creatinine [14]: decreased
total urine protein [14]: reduced
BUN [15]: 37 mg/dL
IRIS Stage (based on the creatinine level) [15]: 2
Owner assessment - quality of life [15]: very good
Owner assessment of the appetite [15]: normal
Owner assessment of the drinking behavior [15]: normal
Systolic blood pressure [15]: 148.0 mmHg
Phosphorus [15]: 1.0 mmol/L
Serum creatinine [15]: 2.0 mg/dL
Potassium [15]: 4.0 mmol/L
Hematocrit (case 200-005, Visit 1 (Day 30), 1 mg/kg po once daily, ref 28.2-52.7): 45.1%
BUN [16]: 32 mg/dL
IRIS Stage (based on the creatinine level) [16]: 2
Owner assessment - quality of life [16]: good
Owner assessment of the appetite [16]: normal
Owner assessment of the drinking behavior [16]: normal
Systolic blood pressure [16]: 130.0 mmHg
Phosphorus [16]: 1.3 mmol/L
Serum creatinine [16]: 1.9 mg/dL
Potassium [16]: 3.9 mmol/L
Hematocrit (case 200-005, Visit 2 (Day 90), 1 mg/kg po once daily, ref 28.2-52.7): 39.2%
UPC [16]: 0.1
BUN [17]: 37 mg/dL
IRIS Stage (based on the creatinine level) [17]: 2
Owner assessment - quality of life [17]: good
Owner assessment of the appetite [17]: normal
Owner assessment of the drinking behavior [17]: normal
Systolic blood pressure [17]: 123.3 mmHg
Phosphorus [17]: 1.1 mmol/L
Serum creatinine [17]: 1.9 mg/dL
Potassium [17]: 4.0 mmol/L
Hematocrit (case 200-005, Visit 3 (Day 128), 1 mg/kg po once daily, ref 28.2-52.7): 40.4%
BUN [18]: 37 mg/dL
IRIS Stage (based on the creatinine level) [18]: 2
Owner assessment - quality of life [18]: very good
Owner assessment of the appetite [18]: normal
Owner assessment of the drinking behavior [18]: normal
Systolic blood pressure [18]: 139.3 mmHg
Serum creatinine [18]: 2.2 mg/dL
Potassium [18]: 4.9 mmol/L
Hematocrit (case 200-005, screening visit (before treatment), ref 28.2-52.7): 42.3%
UPC [18]: 0.1
adverse events [19]: Three adverse events were reported: diarrhoea, vomitus as well as cystitis
expected glucosuric effect [19]: confirmed
Quality of life according to the owner (course) [20]: remained good
Serum creatinine and BUN (course) [20]: remained stable
Serum potassium levels (course) [20]: remained within the reference range
Total urine protein and UPC [20]: remained within the reference range
appetite (course) [20]: improved to normal
condition (clinical signs and biochemical parameters) [20]: stable condition
drinking behavior (course) (case 200-006, 1 mg/kg po once daily, whole study, worsening potentially due to cystitis): improved to normal but worsened again to excessive
BUN [21]: 41 mg/dL
IRIS Stage (based on the creatinine level) [21]: 2
Owner assessment - quality of life [21]: good
Owner assessment of the appetite [21]: normal
Owner assessment of the drinking behavior [21]: normal
Systolic blood pressure [21]: 139.3 mmHg
Phosphorus [21]: 1.9 mmol/L
Serum creatinine [21]: 2.7 mg/dL
Potassium [21]: 3.9 mmol/L
Hematocrit (case 200-006, Visit 1 (Day 30), 1 mg/kg po once daily, ref 28.2-52.7): 38.1%
BUN [22]: 30 mg/dL
IRIS Stage (based on the creatinine level) [22]: 2
Owner assessment - quality of life [22]: good
Owner assessment of the appetite [22]: normal
Owner assessment of the drinking behavior [22]: excessive
